Reference: publication PMC1459931, “Assessment of Xenoestrogens Using Three Distinct Estrogen Receptors and the Zebrafish Brain Aromatase Gene in a Highly Responsive Glial Cell System” (Environmental Health Perspectives, 2005)

Key:
Test in all cases: luciferase reporter transactivation (zebrafish Aro-B promoter) in transfected U251-MG cells
Assay type in all cases: cell-based
Conditions in all cases: agonist; 48 hr, 37°C, 2% charcoal/dextran FCS
[1] = biological target: T1, zfER-β2 (zebrafish ER-β2) (Danio rerio, UniProt Q7ZU32)
T1 construct: gene esr2a; coding region of receptor cDNA in Topo-pcDNA3 (Menuet et al. 2002), transiently expressed in human U251-MG glial cells; approx. 65 kDa; ER-β2 of Menuet et al. corresponds to esr2a (esr2b is ER-β1)
T1 sequence (Q7ZU32 1-553): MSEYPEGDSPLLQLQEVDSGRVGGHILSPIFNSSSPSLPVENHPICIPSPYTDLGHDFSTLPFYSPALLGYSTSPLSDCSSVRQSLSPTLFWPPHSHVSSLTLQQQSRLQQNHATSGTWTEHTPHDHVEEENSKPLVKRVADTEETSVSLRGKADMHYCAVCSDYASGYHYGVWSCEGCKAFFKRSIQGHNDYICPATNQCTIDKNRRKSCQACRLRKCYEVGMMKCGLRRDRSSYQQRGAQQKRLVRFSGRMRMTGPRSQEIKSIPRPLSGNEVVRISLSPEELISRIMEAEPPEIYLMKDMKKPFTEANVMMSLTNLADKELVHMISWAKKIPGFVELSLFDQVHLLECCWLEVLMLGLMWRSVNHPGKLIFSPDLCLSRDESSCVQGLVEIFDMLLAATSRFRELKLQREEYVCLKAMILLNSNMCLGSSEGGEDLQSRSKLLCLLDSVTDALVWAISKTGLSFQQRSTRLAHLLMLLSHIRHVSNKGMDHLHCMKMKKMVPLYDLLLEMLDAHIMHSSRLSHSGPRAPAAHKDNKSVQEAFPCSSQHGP
Description: luciferase reporter transactivation (zebrafish Aro-B promoter) in transfected U251-MG cells on zfER-β2 (zebrafish ER-β2)

[2] = biological target: T2, zfER-β1 (zebrafish ER-β1) (Danio rerio, UniProt Q5PR29)
T2 construct: gene esr2b; coding region of receptor cDNA in Topo-pcDNA3 (Menuet et al. 2002), transiently expressed in human U251-MG glial cells; approx. 65 kDa; ER-β1 of Menuet et al. corresponds to esr2b (esr2a is ER-β2)
T2 sequence (Q5PR29 1-592): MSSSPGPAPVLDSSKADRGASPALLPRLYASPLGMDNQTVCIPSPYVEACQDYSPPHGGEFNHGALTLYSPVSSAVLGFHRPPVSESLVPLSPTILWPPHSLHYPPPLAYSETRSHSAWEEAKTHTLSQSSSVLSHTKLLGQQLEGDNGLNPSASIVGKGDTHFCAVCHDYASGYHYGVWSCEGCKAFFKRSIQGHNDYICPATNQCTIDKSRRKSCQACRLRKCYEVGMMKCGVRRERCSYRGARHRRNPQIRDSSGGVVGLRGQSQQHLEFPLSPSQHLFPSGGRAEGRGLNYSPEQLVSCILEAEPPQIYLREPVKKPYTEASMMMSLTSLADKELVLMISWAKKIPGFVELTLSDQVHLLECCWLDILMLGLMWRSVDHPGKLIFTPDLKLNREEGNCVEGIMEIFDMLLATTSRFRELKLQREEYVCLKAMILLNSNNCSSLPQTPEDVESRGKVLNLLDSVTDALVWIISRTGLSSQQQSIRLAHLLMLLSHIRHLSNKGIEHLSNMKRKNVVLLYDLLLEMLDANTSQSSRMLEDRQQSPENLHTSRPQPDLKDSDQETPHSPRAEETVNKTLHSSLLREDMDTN
Description: luciferase reporter transactivation (zebrafish Aro-B promoter) in transfected U251-MG cells on zfER-β1 (zebrafish ER-β1)

zfER-α (zebrafish ER-α) = biological target: T3, zfER-α (zebrafish ER-α) (Danio rerio, UniProt P57717)
T3 construct: gene esr1; coding region of receptor cDNA in Topo-pcDNA3 (Menuet et al. 2002), transiently expressed in human U251-MG glial cells; approx. 65 kDa in vitro translated
T3 sequence (P57717 1-569): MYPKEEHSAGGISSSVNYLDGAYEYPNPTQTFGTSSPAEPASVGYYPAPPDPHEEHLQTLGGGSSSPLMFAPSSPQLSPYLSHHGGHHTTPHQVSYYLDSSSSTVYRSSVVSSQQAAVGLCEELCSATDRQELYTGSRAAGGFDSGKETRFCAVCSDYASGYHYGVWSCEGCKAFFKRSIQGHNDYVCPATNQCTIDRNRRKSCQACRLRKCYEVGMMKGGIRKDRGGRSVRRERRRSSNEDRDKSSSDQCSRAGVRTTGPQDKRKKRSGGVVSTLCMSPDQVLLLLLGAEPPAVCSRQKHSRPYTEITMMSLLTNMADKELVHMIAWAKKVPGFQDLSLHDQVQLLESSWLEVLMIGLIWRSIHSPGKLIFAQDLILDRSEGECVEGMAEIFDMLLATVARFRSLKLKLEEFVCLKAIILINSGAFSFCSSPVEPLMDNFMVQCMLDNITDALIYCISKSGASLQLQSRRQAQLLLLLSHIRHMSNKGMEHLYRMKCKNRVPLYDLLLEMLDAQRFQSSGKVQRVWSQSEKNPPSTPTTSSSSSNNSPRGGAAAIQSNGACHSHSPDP
Description: luciferase reporter transactivation (zebrafish Aro-B promoter) in transfected U251-MG cells on zfER-α (zebrafish ER-α)

C[C@H]1CCC[C@H](O)CCC/C=C/c2cc(O)cc(O)c2C(=O)O1 [α-Zeralenol]
EC50 [1]: 0.15 nM
EC50 [2]: 0.11 nM
EC50 (zfER-α (zebrafish ER-α)): 0.59 nM
